According to paper PMC7822874, “Chemoprotective antimalarials identified through quantitative high-throughput screening of Plasmodium blood and liver stage parasites” (Scientific Reports, 2021):
Read-outs that look alike come from different tables or passages of the source.

What was measured:
[1] = system: Plasmodium falciparum Dd2 asexual blood stage parasites; experiment: microbe, parasite or virus in culture; parameters: species or system Plasmodium falciparum Dd2 in human erythrocytes; single determination (one 11-point concentration-response curve); settings: Plasmodium falciparum, DD2, Erythrocyte, 72 h
[2] = in vitro; settings: human, hepg2 cells
[3] = system: HepG2; settings: human, hepg2 cells, 48 h

Row | SMILES | Log AC50 (M) [3] [M] | AC50 ([1]; read-out: AC50) [µM] | CC50 at 48 h [2] [µM] | AC50 [1] [µM]
1 | CCN(CC)CCNc1ccnc2cc(Cl)ccc12 [MLS000066547-01] | -4.5143 | 0.211 | 30.6 | 
2 | COc1ccc(-[n+]2c(-c3ccc(Br)cc3)cn3c2CCc2ccccc2-3)cc1.[Br-] [MLS000391920-01] | -4.3643 | 4.22 | 43.2 | 
3 | O=C(O)c1ccccc1.OC(CNCC1CCCO1)Cn1c2ccc(Cl)cc2c2cc(Cl)ccc21 (stereo not drawn) [MLS000525403-01] | -4.4143 | 1.19 | 38.5 | 
4 | O=C(c1cc(NC(=O)C23CC4CC(CC(C4)C2)C3)cc(NC(=O)C23CC4CC(CC(C4)C2)C3)c1)N1CCCCC1 [MLS000549502-01] | -4.3643 | 5.96 | 43.2 | 
5 | O=C(Nc1ccc(Nc2ccncc2)cc1)c1ccc(Nc2ccnc3ccc([N+](=O)[O-])cc23)cc1[N+](=O)[O-] [MLS000756458-01] | -4.5643 |  | 27.3 | 1.33
6 | CC1CCCN(Cc2c(O)ccc3c4c(c(=O)oc23)CCCC4)C1 (stereo not drawn) [MLS000778333-01] | -4.9143 | 6.68 | 12.2 | 
7 | O=C(Nc1ccc(C(F)(F)F)cc1)N1CCN(c2ccnc3cc(Cl)ccc23)CC1 [MLS000830170-01] | -4.6143 | 5.31 | 24.3 | 
8 | CCN(CC)CCNC(=O)c1ccc(NC(=O)c2ccc(S(=O)(=O)N3CCCCCC3)cc2)cc1 [MLS001157553-01] | -4.4643 | 8.41 | 34.3 | 
9 | CN(C)CCNC(=O)c1cc2c(s1)-c1ccc(Cl)cc1SC2 [MLS001198989-01] | -4.4643 | 13.3 | 34.3 | 
10 | COc1cc2nc(N3CCN(c4cc(C)ccc4C)CC3)nc(N)c2cc1OC.Cl [MLS001199642-01] | -4.3643 | 6.68 | 43.2 | 
11 | CCOc1ccc(NS(=O)(=O)c2csc(C(N)=O)c2)cc1 [MLS001199948-01] | -4.6143 | 7.5 | 24.3 | 
12 | CC(C)(C)CC(C)(C)c1ccc(O)c(Cc2ccc(Cl)cc2Cl)c1 [NCGC00095016-01] | -4.6643 | 1.68 | 21.7 | 
13 | CCN(CC)CCn1c(=N)n(CC(O)COc2ccccc2C)c2ccccc21 (stereo not drawn) [NCGC00101835-01] | -4.5643 | 3.35 | 27.3 | 
14 | Cc1cc(OCCn2cc(C(=O)c3ccco3)c3ccccc32)ccc1Cl [NCGC00101880-01] | -4.8143 | 5.31 | 15.3 | 
15 | OC[C@H]1CCN(Cc2ccc(-c3cccc(Cl)c3Cl)o2)C[C@@H]1O [NCGC00438915-01] | -4.5143 |  | 30.6 | 
16 | Cc1nn(C)c(C)c1CCC(=O)N1CCC(Cc2noc(-c3ccc(F)cc3)n2)C1 (stereo not drawn) [NCGC00443260-01] | -4.5143 |  | 30.6 | 
17 | C[S+](=O)([O-])N1CCC(OC2CCN(C(=O)Nc3cc(F)ccc3F)CC2)CC1 [NCGC00445092-01] | -4.3643 |  | 43.2 | 
18 | CCCCOc1ccc(-c2nc(C3CC(=O)N(C4CCCCC4)C3)no2)cc1 (stereo not drawn) [NCGC00448051-01] | -4.4643 |  | 34.3 | 
19 | Cc1ccc(NC(=O)C2CCN(c3cc(C(F)(F)F)ncn3)CC2)cc1 [NCGC00455557-01] | -4.4643 |  | 34.3 | 
20 | CCc1ccc(NC(=O)C2CCN(c3cc(C(F)(F)F)ncn3)CC2)cc1 [NCGC00455558-01] | -4.4643 |  | 34.3 | 
21 | O=C1CCN(Cc2ccc(C(F)(F)F)cc2)CCCC(c2nc(-c3cccnc3)no2)CCN1 (stereo not drawn) [NCGC00465921-01] | -4.5643 |  | 27.3 | 
22 | O=C1CCN(Cc2ccc(F)cc2F)CCCC(c2nc(-c3cnccn3)no2)CCN1 (stereo not drawn) [NCGC00465975-01] | -4.9143 |  | 12.2 | 
23 | CCc1nnc([C@@H]2CC(F)(F)CN2Cc2cccn2C)o1 [NCGC00468656-01] | -4.8643 |  | 13.7 | 

More lines, main results first:

Row | Log AC50 (M) [3] [M] | SMILES | AC50 ([1]; read-out: AC50) [µM] | CC50 at 48 h [2] [µM] | AC50 [1] [µM]
24 | -4.4643 | COc1ccc(NC(=O)c2ccc(Cl)c(S(=O)(=O)N3CCc4ccccc4C3)c2)cn1 [MLS000057537-01] | 7.5 | 34.3 | 
25 | -4.3643 | Cc1ccc(CNCc2cc3c(C(C)(C)C)nn(-c4ccccc4)c3[nH]c2=O)cc1 [MLS000067257-01] | 0.266 | 43.2 | 
26 | -4.4643 | CCCCNc1cc(C)nc(NCc2ccccc2)n1 [MLS000078573-01] | 9.44 | 34.3 | 
27 | -4.3643 | C=C(C)COc1ccc(-c2n[nH]c(C)c2-c2ccccc2)c(O)c1 [MLS000083081-01] | 4.73 | 43.2 | 
28 | -4.3643 | CCCCC(=O)NC(c1cccc([N+](=O)[O-])c1)c1c(OC(C)=O)ccc2ccccc12 (stereo not drawn) [MLS000527046-01] | 3.76 | 43.2 | 
29 | -4.4643 | Cc1cc(NC2CCCCC2)nc(NCc2ccccc2)n1 [MLS000555549-01] | 16.8 | 34.3 | 
30 | -5.9643 | Cc1cc(NCc2ccccn2)n2nc(C)c(-c3ccccc3)c2n1 [MLS000559925-01] | 13.3 | 1.09 | 
31 | -4.4143 | CCOc1ccc2nc(C)cc(Nc3ccc4c(c3)OCCO4)c2c1 [MLS000575119-01] | 6.68 | 38.5 | 
32 | -4.5143 | O=C(Nc1ccc([N+](=O)[O-])cc1)Nc1ccc(OC(F)F)c(Cl)c1 [MLS000581434-01] | 2.66 | 30.6 | 
33 | -4.3643 | Cc1cc(Nc2ccc(Cl)cc2)nc(NCc2ccccc2)n1 [MLS000591025-01] | 0.422 | 43.2 | 
34 | -6.0143 | Fc1cccc(NC(S)=NNc2c3ccccc3nc3ccccc23)c1 [MLS000660813-01] | 15 | 0.968 | 
35 | -4.3643 | Cc1ccc2nc(C)cc(Nc3ccc([N+](=O)[O-])cc3)c2c1 [MLS000710716-01] | 6.68 | 43.2 | 
36 | -4.7643 | CCCCC(=O)NC(c1ccccc1OC)c1ccc2cccnc2c1O (stereo not drawn) [MLS000715346-01] | 5.31 | 17.2 | 
37 | -4.5643 | COc1ccc(/C=N/Nc2nc(Nc3ccccc3)nc(N3CCCC3)n2)cc1[N+](=O)[O-] [MLS000723644-01] | 6.68 | 27.3 | 
38 | -4.4143 | Oc1cccc(C(Nc2nccs2)c2ccc3cccnc3c2O)c1 (stereo not drawn) [MLS000760926-01] | 7.5 | 38.5 | 
39 | -4.3643 | FC(F)(F)c1cnc(N2CCCN(C(S)=Nc3ccccc3)CC2)c(Cl)c1 [MLS000833545-01] | 4.73 | 43.2 | 

Row | Log AC50 (M) [3] [M] | SMILES | AC50 ([1]; read-out: AC50) [µM] | CC50 at 48 h [2] [µM] | AC50 [1] [µM]
40 | -4.3643 | Cc1ccc(Oc2c(C)[nH]c(-c3ccccc3)nc2=O)cc1 [MLS000851017-01] | 5.31 | 43.2 | 
41 | -4.9643 | O=C(Nc1nnc(SCc2ccc(F)cc2)s1)c1ccccn1 [MLS001003501-01] | 8.41 | 10.9 | 
42 | -4.3643 | CC(Sc1nc2ccccc2c(=O)n1C)C(=O)N(C)C1CCCCC1 (stereo not drawn) [MLS001098006-01] | 5.31 | 43.2 | 
43 | -4.5143 | COc1ccc2nc(C)cc(NCc3cccc(C(F)(F)F)c3)c2c1 [MLS001174340-01] | 2.11 | 30.6 | 
44 | -4.8143 | Cc1nc(-c2ccccn2)nc(N(C)c2ccccc2)c1Cl [MLS001182279-01] | 5.31 | 15.3 | 
45 | -4.9143 | CN(C)CCCNc1c2ccccc2nc2ccccc12 [MLS001198528-01] | 4.22 | 12.2 | 
46 | -4.5143 | CCN(CC)CCNC(=O)c1ccc(NC(=O)c2cn(-c3ccc(F)cc3)nc2-c2cccc(OC)c2)cc1 [MLS001233779-01] | 9.44 | 30.6 | 
47 | -4.3643 | COc1cc(Cl)c(NC2=CC(=O)C(=O)c3ccccc32)c(OC)c1 [MLS001360325-01] | 1.68 | 43.2 | 
48 | -4.3643 | O=C1NCN(c2ccccc2)C12CCN(CCCC(c1ccc(F)cc1)c1ccc(F)cc1)CC2 [NCGC00015424-04] | 5.31 | 43.2 | 
49 | -4.3643 | CCN1CCN(c2cc(C)c3cc(NC(=O)/C=C/c4ccc(C)cc4)ccc3n2)CC1 [NCGC00103850-01] | 4.22 | 43.2 | 
50 | -8.3643 | O=C(CC1C(=O)NCCN1Cc1cccc(Oc2ccccc2)c1)NCc1ccco1 (stereo not drawn) [NCGC00439848-01] |  | 0.00432 | 
51 | -4.4643 | CC(C)c1nc(-c2ccc(OC3CCN(C(=O)c4cc(F)ccc4F)C3)cc2)no1 (stereo not drawn) [NCGC00441011-01] |  | 34.3 | 
52 | -4.5143 | O=C(c1n[nH]c2c1CCCC2)N1CCC(n2cc(-c3nc(-c4ccccc4)no3)nn2)CC1 [NCGC00454851-01] |  | 30.6 | 
53 | -4.3643 | COc1ccc(C(=O)N2CCC(n3cc(-c4nc(-c5ccccc5)no4)nn3)C2)cc1 (stereo not drawn) [NCGC00455125-01] |  | 43.2 | 
54 | -4.4643 | Cc1nc(N2CCC(NC(=O)c3cc4ccccc4[nH]3)CC2)cc(C(F)(F)F)n1 [NCGC00455533-01] |  | 34.3 | 
55 | -4.5143 | Cc1nc(C)c(C(=O)N2CC(Oc3ccc(-c4noc(-c5ccccc5)n4)cc3)C2)s1 [NCGC00458037-01] |  | 30.6 | 
